Values belong to the compound of their own block, whether it stands above or below them. Calls of active or inactive are those of the source.
How the values were obtained:
[1] = biological target: Peroxisome proliferator-activated receptor gamma/Nuclear receptor coactivator 2 (Homo sapiens, UniProt P37231); assay type: functional;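 further: agonist potency for raising coactivator recruitment to the receptor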
[2] = biological target: Peroxisome proliferator-activated receptor gamma/Nuclear receptor coactivator 1 (Homo sapiens, UniProt P37231); assay type: functional;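 further: agonist potency as compounds enhance coactivator SRC-1 recruitment to PPARgamma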
[3] = biological target: Peroxisome proliferator-activated receptor gamma/Nuclear receptor coactivator 3 (Homo sapiens, UniProt P37231); assay type: functional;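 further: agonist potency for raising coactivator recruitment to the receptor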
[4] = potency of ADAM10 substrate cleavage blockers – biochemical, QFRET, dose response (AID 743254);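 further: ADAM10 enzyme with the DM2 quenched FRET peptide as substrate; EDANS fluorescence gain as the protease cuts the substrate; inhibitor potency against ADAM10 proteolytic activity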
[5] = biological target: Disintegrin and metalloproteinase domain-containing protein 17 (Homo sapiens, UniProt P78536); assay: inhibition of ADAM17 substrate cleavage – biochemical, quenched FRET substrate, counter-screen for ADAM10 exosite inhibitor project, dose response (AID 743253)
[6] = reduction of Shn3 3'UTR-driven luciferase in osteoblasts – cell-based, Clone20 osteoblasts, firefly luciferase, cherry-picked, dose response (AID 624132); assay type: functional;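 further: firefly luciferase luminescence from reporter carrying the Shn3 3'UTR in osteoblasts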
[7] = loss of viability in HepG2 cells – cell-based, CellTiter-Glo, cherry-picked, cytotoxicity control for Shn3 inhibitor project, dose response (AID 624134); assay type: functional
[8] = non-specific 3'UTR reporter inhibition in Clone20-Shn3RL – cell-based, Renilla luciferase, cherry-picked, counter-screen for Shn3 inhibitor project, dose response (AID 624133); assay type: functional
[9] = biological target: T1, COUP transcription factor 2 (Homo sapiens, UniProt P24468); assay: Luminescence-based cell-based high throughput dose response assay to identify inhibitors of COUP-TFII (NR2F2).; assay type: functional;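 further: HEK293 cells transiently cotransfected with COUP-TFII expression vector and reporter; luciferase reporter luminescence driven by COUP-TFII from the pX2-168 reporter plasmid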
T1 sequence (P24468 whole entry): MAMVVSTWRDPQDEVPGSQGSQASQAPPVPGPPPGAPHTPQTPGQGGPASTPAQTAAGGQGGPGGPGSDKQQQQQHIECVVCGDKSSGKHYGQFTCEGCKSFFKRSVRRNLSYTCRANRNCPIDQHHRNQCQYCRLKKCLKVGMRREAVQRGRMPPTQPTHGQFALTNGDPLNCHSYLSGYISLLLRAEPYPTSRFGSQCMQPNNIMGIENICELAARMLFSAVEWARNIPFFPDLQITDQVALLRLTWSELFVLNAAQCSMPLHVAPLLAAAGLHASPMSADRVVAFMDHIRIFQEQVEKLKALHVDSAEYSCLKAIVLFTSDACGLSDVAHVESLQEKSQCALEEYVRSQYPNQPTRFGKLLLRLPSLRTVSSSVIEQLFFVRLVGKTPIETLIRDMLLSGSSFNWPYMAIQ

Paired box protein Pax-8 = Paired box protein Pax-8 (Homo sapiens, UniProt Q06710); assay: PAX8 transcriptional activity inhibition in RMG-I – RMG-I cells, luciferase, cherry-pick, dose response (AID 687027); assay type: functional, cell-based;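 further: luciferase reporter driven by Pax8 target thyroperoxidase promoter measured by SteadyGlo luminescence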
[10] = A2780 cell killing – plate reader, dry powder samples, cytotoxicity control, dose response (AID 743046); assay type: functional, cell-based
[11] = OVCAR-3 cell viability loss – plate reader, dry powder samples, PAX8 inhibitor project, dose response (AID 743044); assay type: functional, cell-based
[12] = OVCAR8 cell viability loss – plate reader, dry powder samples, PAX8 project, dose response (AID 743197); assay type: functional, cell-based; settings: OVCAR-8
[13] = biological target: T2, Small ubiquitin-related modifier 1 (Homo sapiens, UniProt P63165); assay: SUMO1 protein interaction blockers, potency – biochemical, fluorescence polarization, uHTS hits, dose response (AID 624382); assay type: functional; settings: read-out: IC50_Mean
[14] = biological target: T2, Small ubiquitin-related modifier 1; assay: SUMO1 protein-protein binding blockers, potency – biochemical, FRET, dose response (AID 624383); assay type: functional; settings: read-out: IC50_Mean
Caspase-6 = biological target: T3, Caspase-6 (Homo sapiens, UniProt P55212); assay: inhibition of CASP6 peptide cleavage – biochemical, VEID-R110 fluorescence, cherry-pick, dose response (AID 720632)
T3 sequence (P55212 whole entry): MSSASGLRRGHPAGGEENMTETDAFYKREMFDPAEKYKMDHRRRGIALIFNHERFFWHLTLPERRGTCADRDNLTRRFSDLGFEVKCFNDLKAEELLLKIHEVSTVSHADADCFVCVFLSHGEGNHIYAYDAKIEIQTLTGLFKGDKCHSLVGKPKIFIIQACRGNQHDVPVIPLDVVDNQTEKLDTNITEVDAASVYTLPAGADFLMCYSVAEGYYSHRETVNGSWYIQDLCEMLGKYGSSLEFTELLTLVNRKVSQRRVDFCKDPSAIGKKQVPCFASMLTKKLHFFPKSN

[15] = biological target: T4, Aryl hydrocarbon receptor (Homo sapiens, UniProt P35869); assay: Luminescence-based cell-based high throughput dose response assay for activators of the Aryl Hydrocarbon Receptor (AHR). [Related pubchem assays: 2796 (Primary screen (AHR activators in singlicate)), 2845 (Confirmation screen (AHR activators in triplicate)), 434939 (Counterscreen (PXR activators in triplicate)), 2804 (Summary (AHR activators))]; assay type: ADME
T4 sequence (P35869 whole entry): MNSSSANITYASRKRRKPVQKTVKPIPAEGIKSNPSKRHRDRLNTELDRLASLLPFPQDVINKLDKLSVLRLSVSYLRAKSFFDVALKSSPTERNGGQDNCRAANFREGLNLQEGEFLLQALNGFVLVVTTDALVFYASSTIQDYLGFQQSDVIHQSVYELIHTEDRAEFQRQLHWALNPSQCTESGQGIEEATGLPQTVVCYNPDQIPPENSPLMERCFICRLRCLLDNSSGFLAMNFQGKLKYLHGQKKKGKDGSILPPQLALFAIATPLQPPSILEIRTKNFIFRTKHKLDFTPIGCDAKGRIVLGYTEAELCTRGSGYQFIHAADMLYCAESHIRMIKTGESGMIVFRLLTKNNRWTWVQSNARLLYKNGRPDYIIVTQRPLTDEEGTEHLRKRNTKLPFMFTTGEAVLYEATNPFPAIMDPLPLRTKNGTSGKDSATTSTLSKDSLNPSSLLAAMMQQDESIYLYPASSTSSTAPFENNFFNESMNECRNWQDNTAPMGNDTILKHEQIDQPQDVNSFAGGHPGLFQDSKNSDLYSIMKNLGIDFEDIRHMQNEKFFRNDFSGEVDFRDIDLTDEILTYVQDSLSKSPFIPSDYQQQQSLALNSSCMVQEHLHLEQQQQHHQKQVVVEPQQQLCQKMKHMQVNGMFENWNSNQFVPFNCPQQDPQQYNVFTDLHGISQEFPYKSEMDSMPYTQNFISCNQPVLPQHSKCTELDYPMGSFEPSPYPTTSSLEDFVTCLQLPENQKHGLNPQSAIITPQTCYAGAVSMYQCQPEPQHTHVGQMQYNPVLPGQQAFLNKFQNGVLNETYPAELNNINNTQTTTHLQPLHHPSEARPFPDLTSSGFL

Albumin = Albumin (Bos taurus, UniProt P02769); assay: Counterscreen for inhibitors of T-cell receptor (TCR)-CD3 interaction: Fluorescence-based biochemical high throughput dose response assay to identify inhibitors of T-cell receptor (TCR)-CD3 interaction using a TAMRA-labeled BSA probe.; assay type: functional
[16] = Luminescence Cell-Based Dose Retest to Confirm Inhibitors of Cancer Stem Cells. [Related pubchem assays (depositor defined):AID2717, AID2721]; assay type: functional; settings: Homo sapiens
Cytochrome P450 2C19 = Cytochrome P450 2C19 (Homo sapiens, UniProt P33261); assay: Cytochrome panel assay with activity outcomes. Panel member name: p450-cyp2c19 Compounds with AC50 equal or less than 10 uM are considered active; assay type: functional; settings: read-out: AC50
[17] = biological target: NAD-dependent protein deacylase sirtuin-5, mitochondrial (Homo sapiens, UniProt Q9NXA8); assay: sirtuin-5 deacylation blockers, concentration series – biochemical, fluorescence imaging, cherry-pick, set 5, dose response (AID 720591);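 further: desuccinylation of succinyl peptide AMC substrate read as fluorescence after trypsin release; potency of inhibitors that lower fluorescence and may act on trypsin instead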
Cytochrome P450 1A2 = biological target: T5, Cytochrome P450 1A2 (Homo sapiens, UniProt P05177);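 further: PubChem cytochrome P450 panel assay, CYP1A2 panel member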
T5 sequence (P05177 whole entry): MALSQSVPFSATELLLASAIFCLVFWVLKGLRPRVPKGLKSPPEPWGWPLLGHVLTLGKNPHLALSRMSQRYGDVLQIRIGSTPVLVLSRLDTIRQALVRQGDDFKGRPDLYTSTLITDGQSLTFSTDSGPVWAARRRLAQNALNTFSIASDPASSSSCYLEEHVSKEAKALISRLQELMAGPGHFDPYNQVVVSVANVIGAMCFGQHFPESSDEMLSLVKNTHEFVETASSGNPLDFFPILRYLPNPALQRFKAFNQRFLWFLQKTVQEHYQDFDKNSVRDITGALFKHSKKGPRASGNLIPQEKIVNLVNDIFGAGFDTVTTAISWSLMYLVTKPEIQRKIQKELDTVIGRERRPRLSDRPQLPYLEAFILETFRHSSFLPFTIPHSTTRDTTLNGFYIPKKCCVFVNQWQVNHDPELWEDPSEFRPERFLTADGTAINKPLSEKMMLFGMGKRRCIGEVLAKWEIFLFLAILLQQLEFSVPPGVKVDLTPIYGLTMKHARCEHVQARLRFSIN

Cytochrome P450 2D6 = Cytochrome P450 2D6 (Homo sapiens, UniProt P10635);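 further: CYP2D6 member of a cytochrome P450 panel assay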

T2 sequence (P63165 whole entry): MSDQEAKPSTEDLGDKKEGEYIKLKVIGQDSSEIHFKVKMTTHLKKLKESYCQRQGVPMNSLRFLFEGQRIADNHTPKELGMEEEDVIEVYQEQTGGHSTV
Sequence of Disintegrin and metalloproteinase domain-containing protein 17 (P78536 whole entry, the tested form may be a part): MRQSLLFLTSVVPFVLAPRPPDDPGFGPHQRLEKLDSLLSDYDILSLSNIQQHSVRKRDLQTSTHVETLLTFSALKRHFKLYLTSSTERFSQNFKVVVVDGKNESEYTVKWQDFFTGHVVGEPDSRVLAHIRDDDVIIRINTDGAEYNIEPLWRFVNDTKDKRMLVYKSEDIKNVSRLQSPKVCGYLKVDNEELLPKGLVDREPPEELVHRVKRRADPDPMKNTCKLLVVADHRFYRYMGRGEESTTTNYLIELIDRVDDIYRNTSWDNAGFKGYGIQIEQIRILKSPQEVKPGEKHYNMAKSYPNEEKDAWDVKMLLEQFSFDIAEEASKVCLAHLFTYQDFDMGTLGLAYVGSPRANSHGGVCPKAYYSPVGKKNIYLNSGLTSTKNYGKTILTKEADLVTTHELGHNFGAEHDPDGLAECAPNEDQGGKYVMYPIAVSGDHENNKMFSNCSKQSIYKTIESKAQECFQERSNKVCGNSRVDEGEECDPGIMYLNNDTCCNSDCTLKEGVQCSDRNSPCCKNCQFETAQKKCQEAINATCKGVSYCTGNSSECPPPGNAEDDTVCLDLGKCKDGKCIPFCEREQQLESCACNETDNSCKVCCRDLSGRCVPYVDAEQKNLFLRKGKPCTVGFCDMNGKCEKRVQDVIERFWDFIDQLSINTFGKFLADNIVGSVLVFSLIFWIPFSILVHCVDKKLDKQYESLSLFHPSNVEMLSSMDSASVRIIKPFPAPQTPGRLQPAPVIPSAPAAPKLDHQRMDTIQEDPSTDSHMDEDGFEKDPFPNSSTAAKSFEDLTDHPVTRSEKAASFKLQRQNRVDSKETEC
Sequence of Peroxisome proliferator-activated receptor gamma/Nuclear receptor coactivator 3 (P37231 whole entry): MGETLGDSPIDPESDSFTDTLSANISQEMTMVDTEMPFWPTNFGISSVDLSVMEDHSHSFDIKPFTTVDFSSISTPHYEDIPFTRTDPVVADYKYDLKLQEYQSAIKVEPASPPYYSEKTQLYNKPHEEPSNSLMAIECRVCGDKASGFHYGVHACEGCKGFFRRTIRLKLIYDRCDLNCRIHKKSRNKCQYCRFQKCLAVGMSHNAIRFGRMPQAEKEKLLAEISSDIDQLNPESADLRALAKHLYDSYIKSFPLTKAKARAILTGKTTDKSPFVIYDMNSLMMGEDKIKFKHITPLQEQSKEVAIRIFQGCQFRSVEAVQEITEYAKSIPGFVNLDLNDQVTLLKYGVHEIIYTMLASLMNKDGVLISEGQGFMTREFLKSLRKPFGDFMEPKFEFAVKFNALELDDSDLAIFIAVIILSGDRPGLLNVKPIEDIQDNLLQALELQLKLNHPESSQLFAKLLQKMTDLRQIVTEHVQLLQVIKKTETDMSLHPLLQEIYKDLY
Sequence of Peroxisome proliferator-activated receptor gamma/Nuclear receptor coactivator 3 (Q9Y6Q9 whole entry, further chain): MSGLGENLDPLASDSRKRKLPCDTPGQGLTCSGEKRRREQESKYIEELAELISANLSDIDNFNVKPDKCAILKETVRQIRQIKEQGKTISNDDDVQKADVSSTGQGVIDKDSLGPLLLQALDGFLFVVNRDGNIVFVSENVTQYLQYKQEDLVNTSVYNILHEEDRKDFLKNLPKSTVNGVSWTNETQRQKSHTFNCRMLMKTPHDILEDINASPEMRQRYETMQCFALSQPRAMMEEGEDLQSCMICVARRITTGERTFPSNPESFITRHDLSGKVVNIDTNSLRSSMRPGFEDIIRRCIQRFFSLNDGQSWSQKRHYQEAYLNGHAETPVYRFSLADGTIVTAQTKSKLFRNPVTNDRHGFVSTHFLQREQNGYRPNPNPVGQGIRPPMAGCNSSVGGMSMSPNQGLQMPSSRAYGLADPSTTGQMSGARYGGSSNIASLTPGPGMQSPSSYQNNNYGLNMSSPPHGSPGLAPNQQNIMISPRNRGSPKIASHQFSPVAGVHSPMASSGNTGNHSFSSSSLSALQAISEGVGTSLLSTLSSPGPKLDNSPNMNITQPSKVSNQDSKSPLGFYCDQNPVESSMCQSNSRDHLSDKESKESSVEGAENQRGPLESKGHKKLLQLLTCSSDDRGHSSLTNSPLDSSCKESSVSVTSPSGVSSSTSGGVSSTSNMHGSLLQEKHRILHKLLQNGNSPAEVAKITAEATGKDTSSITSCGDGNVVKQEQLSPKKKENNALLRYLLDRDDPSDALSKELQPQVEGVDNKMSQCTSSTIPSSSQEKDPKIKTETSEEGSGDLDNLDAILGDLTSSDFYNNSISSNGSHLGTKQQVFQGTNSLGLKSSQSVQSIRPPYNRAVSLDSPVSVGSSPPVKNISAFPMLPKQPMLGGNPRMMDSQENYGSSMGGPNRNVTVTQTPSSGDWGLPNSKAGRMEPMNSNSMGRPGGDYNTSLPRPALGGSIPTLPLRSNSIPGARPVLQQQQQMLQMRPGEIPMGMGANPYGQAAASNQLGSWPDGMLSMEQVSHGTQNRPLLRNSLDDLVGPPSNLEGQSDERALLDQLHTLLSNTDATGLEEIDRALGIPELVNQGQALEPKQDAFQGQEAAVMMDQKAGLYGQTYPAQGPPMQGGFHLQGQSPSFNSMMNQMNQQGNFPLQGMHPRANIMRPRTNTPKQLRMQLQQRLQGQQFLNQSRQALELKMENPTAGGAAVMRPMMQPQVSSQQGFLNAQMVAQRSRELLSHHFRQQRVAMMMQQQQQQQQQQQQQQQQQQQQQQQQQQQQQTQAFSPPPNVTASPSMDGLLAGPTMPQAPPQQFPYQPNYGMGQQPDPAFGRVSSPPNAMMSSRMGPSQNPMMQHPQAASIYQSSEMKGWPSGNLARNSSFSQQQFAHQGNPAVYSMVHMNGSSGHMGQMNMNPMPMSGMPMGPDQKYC
Sequence of Peroxisome proliferator-activated receptor gamma/Nuclear receptor coactivator 2 (P37231 whole entry): as the sequence (P37231 whole entry) above
Sequence of Peroxisome proliferator-activated receptor gamma/Nuclear receptor coactivator 2 (Q15596 whole entry, further chain): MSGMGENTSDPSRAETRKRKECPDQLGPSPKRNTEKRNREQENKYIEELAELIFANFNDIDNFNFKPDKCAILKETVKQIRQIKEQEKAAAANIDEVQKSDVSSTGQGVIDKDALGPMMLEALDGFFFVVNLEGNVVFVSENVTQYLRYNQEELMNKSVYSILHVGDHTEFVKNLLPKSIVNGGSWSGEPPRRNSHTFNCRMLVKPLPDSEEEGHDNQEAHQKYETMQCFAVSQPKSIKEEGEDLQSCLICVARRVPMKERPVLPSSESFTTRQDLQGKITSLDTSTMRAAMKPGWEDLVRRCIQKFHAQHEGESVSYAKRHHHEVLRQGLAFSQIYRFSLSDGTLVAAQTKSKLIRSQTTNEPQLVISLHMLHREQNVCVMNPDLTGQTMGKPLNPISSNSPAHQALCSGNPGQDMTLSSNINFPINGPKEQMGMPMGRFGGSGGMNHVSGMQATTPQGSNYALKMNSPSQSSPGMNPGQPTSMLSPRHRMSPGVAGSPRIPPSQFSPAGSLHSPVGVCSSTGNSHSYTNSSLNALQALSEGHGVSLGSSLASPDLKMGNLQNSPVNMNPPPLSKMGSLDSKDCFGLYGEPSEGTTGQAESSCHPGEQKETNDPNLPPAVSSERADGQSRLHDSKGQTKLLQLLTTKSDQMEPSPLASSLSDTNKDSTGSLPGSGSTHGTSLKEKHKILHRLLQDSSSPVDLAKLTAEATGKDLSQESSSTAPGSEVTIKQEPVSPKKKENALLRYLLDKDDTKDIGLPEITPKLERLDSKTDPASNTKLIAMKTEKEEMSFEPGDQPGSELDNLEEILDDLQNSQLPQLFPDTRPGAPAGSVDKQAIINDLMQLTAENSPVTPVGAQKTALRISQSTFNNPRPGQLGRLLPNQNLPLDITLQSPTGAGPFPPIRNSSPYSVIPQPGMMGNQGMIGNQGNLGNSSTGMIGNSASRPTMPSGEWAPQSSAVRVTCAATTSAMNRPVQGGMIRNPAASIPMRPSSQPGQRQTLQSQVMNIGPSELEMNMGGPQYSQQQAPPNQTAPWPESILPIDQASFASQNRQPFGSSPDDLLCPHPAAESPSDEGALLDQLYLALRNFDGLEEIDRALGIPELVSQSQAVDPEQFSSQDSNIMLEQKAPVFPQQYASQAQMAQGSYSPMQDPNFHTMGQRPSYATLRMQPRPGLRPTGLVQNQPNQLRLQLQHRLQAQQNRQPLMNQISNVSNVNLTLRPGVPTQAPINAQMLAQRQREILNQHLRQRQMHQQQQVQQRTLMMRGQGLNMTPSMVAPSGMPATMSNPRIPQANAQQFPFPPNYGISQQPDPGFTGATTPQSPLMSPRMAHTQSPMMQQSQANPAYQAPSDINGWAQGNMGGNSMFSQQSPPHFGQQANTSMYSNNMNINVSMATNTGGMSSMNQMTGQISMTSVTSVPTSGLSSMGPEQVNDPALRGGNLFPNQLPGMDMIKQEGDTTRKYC

- EC50 [1]: 27.1 µM (not active)
- EC50 [2]: 24.6 µM (not active)
- EC50 [3]: 36.7 µM (not active)
SMILES: COC(=O)c1ccc(S(=O)(=O)c2ccc(C(=O)OC)s2)s1

- IC50 [4]: > 69.5 µM (inactive)
- IC50 [5]: > 69.5 µM (inactive)
SMILES: COC(=O)c1ccc(-c2cc3onc(-c4ccccc4)c3c(=O)n2C)cc1

- EC50 [1]: > 79.4 µM (not active)
- EC50 [2]: > 79.4 µM (not active)
- EC50 [3]: > 79.4 µM (not active)
SMILES: O=C(O)CCCC(=O)Nc1cc([N+](=O)[O-])ccc1O

SMILES: Cc1cc(/C=C2/SC(=S)N(c3cccc(Cl)c3)C2=O)c(C)n1-c1cccnc1
- AC50 [6]: 0.979 µM (active)
- AC50 [7]: 47.8 µM (active)
- AC50 [8]: 3.55 µM (active)
- IC50 [9]: 5.65 µM (active)

SMILES: C[C@H](CO)N1C[C@H](C)[C@@H](CN(C)Cc2ccc(C(F)(F)F)cc2)OCCCC[C@H](C)Oc2ccc(NC(=O)Nc3ccc(F)cc3)cc2C1=O
- AC50 (Paired box protein Pax-8): 9.37 µM (active)
- AC50 [10]: 46.6 µM (active)
- AC50 [11]: 45.4 µM (active)
- AC50 [12]: 39.2 µM (active)

SMILES: COc1ccc(Cl)cc1Nc1nc(-c2sc(NC(=O)C(C)(C)C)nc2C)cs1
- IC50 [13]: > 66.6 µM (inactive)
- IC50 [14]: 7.99 µM (active)
- IC50 [9]: 11.2 µM (inactive)

SMILES: C[C@@H]1CN([C@@H](C)CO)C(=O)c2cc(NC(=O)Nc3ccccc3)ccc2O[C@@H](C)CCCCO[C@H]1CN(C)Cc1ccc(Cl)c(Cl)c1
- AC50 [10]: 3.59 µM (active)

- AC50 (Caspase-6): 50.4 µM (active)
SMILES: O=C(c1ccncc1)N1CCCCN2[C@H](C1)[C@H](c1ccc(C#Cc3ccccn3)cc1)[C@@H]2CO

- IC50 [4]: > 69.5 µM (inactive)
- IC50 [5]: > 69.5 µM (inactive)
SMILES: C[C@@H]1CCCCO[C@@H](CN(C)C(=O)Nc2ccc3c(c2)OCO3)[C@@H](C)CN([C@H](C)CO)C(=O)c2cc(NC(=O)Nc3ccc(C(F)(F)F)cc3)ccc2O1

- EC50 [15]: 12.3 µM (not active)
SMILES: Oc1oc(-c2ccccc2)nc1/C=N/c1nccs1

- IC50 (Albumin): > 94.1 µM (inactive)
SMILES: O=C(CSc1nc2ccccc2s1)N/N=C/c1cc([N+](=O)[O-])ccc1O

- EC50 [15]: > 91.6 µM (not active)
SMILES: CC(/C=C/c1cccc([N+](=O)[O-])c1)=N/NC(=O)c1cccnc1

SMILES: CC(C)(Sc1ccc(CCN(CCCCC2CCCCC2)C(=O)NC2CCCCC2)cc1)C(=O)O [GW7647]
- AC50 [16]: 4.46 µM (active)
- AC50 (Cytochrome P450 2C19): 25.1 µM (inconclusive)
- AC50 [17]: 7.9 µM (active)
- AC50 (Cytochrome P450 1A2): 39.8 µM (inconclusive)
- AC50 (Cytochrome P450 2D6): inconclusive
